Assay results reported in the Kinase Knowledgebase extract (Sharma et al. 2016).

target: PIK3CD (Human) (UniProt O00329); experiment: Cell-Free Assay
Sequence (O00329 whole entry, looked up): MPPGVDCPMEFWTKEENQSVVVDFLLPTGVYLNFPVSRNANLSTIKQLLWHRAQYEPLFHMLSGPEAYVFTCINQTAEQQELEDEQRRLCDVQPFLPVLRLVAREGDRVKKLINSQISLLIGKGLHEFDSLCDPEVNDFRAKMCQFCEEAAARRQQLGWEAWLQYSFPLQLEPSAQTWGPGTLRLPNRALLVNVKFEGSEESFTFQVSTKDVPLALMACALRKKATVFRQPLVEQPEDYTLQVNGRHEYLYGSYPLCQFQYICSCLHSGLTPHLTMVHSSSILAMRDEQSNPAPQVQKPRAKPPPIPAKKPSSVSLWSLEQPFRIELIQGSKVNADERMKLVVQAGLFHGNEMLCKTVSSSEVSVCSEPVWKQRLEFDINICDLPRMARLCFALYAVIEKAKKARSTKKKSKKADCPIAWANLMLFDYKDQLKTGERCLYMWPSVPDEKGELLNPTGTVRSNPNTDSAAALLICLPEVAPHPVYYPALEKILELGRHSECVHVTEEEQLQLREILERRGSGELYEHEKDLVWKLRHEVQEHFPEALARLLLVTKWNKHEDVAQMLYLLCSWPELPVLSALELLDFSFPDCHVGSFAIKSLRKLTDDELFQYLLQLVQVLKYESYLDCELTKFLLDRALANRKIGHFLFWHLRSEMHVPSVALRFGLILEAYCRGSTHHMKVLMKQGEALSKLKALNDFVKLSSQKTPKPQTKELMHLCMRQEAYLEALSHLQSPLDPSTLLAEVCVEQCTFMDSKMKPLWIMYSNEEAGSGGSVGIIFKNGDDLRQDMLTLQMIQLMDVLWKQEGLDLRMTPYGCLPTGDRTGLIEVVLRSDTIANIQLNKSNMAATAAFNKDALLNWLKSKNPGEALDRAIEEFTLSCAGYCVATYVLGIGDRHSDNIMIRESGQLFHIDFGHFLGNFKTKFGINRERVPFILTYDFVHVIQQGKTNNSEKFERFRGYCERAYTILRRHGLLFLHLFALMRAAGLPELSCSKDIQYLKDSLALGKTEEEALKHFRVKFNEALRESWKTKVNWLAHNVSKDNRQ

Row | Compound | IC50 [nM]
1 | Cc1cc(-c2nc([C@H](C)Nc3ncnc(N)c3C#N)nn3ccc(C)c23)n(C)n1 | 9.9
2 | Cc1cc(-c2nc([C@H](C)Nc3ncnc(N)c3C#N)nn3ccc(C)c23)cc(C)c1O | 0.3
3 | COc1cccc(N(C)c2nc([C@H](C)Nc3ncnc(N)c3C#N)nn3ccc(C)c23)c1 | 19
4 | C[C@H](Nc1ncnc(N)c1C#N)c1nc(OCC2CCOCC2)c2c(C#N)ccn2n1 | 31
5 | CC(=O)N1[C@H](C)CN(c2nc([C@H](C)Nc3ncnc(N)c3C#N)nn3ccc(C)c23)C[C@@H]1C | 45.4
6 | COc1ncc(-c2nc([C@H](C)Nc3ncnc(N)c3C#N)nn3ccc(C)c23)cc1NS(C)(=O)=O | 7
7 | Cc1ccn2nc([C@H](Cc3cccc(O)c3)Nc3ncnc(N)c3C#N)nc(N3C[C@@H](C)N[C@@H](C)C3)c12 | 8.8
8 | Cc1ccn2nc(Cn3nc(-c4cc(O)cc(F)c4)c4c(N)ncnc43)nc(N3CCCNCC3)c12 | 6.1
9 | Cc1cc(N(C)C)cc(C2CCN(c3cc(-c4nc([C@H](C)Nc5ncnc(N)c5C#N)nn5ccc(C)c45)ccn3)CC2)n1 | 2.8
10 | CCOC(=O)C1CCN(CCOc2nc(Cn3nc(-c4cc(O)cc(F)c4)c4c(N)ncnc43)nn3ccc(C)c23)CC1 | 1.2
11 | Cc1ccn2nc([C@H](C)Nc3ncnc(N)c3C#N)nc(N3CCC(CN4CCCC4)CC3)c12 | 6.2
12 | Cc1ccn2nc(Cn3nc(-c4cc(O)cc(F)c4)c4c(N)ncnc43)nc(N(CCN(C)C)c3cccc(O)c3)c12 | 0.1
13 | Cc1ccn2nc([C@H](C)Nc3ncnc(N)c3C#N)nc(N(CCN3CCOCC3)c3cccc(O)c3)c12 | 13
14 | CN[C@H]1CCCC[C@@H]1N(C)c1nc([C@H](C)Nc2ncnc(N)c2C#N)nn2ccc(C)c12 | 10.6
15 | Cc1ccn2nc(Cn3nc(-c4cc(O)cc(F)c4)c4c(N)ncnc43)nc(OCCN3CCCC3=O)c12 | 2.5
16 | Cc1ccn2nc([C@H](C)Nc3ncnc(N)c3C#N)nc(Oc3cccc(NCCN(C)C)c3)c12 | 10
17 | Cc1ccn2nc(Cn3nc(-c4cc(O)cc(F)c4)c4c(N)ncnc43)nc(N3C[C@@H]4C[C@H]3CN4)c12 | 1
18 | Cc1ccn2nc([C@H](C)Nc3ncnc(N)c3C#N)nc(OC3CCN(C(C)C)CC3)c12 | 6
19 | Cc1ccn2nc([C@H](C)Nc3ncnc(N)c3C#N)nc(-c3cc(O)cc(C#N)c3)c12 | 1.3
20 | COc1ncc(-c2c[nH]c3ncnc(N[C@@H](C)c4nc(N5C[C@@H](C)O[C@@H](C)C5)c5c(C)ccn5n4)c23)cc1NS(C)(=O)=O | 0.5

Row | Compound | IC50 [nM]
21 | Cc1ccn2nc([C@H](C)Nc3ncnc(N)c3C#N)nc(N[C@@H](Cc3ccc(O)cc3)C(N)=O)c12 | 14.6
22 | CC(C)Oc1nc([C@H](C)Nc2ncnc(N)c2C#N)nn2cccc12 | 62
23 | Cc1ccn2nc(Cn3nc(-c4cc(O)cc(F)c4)c4c(N)ncnc43)nc(N3C[C@@H](C)O[C@@H](C)C3)c12 | 1
24 | Cc1cc(-c2nc([C@H](C)Nc3ncnc(N)c3C#N)nn3cccc23)cc(C)c1C(=O)NCCO | 11.4
25 | Cc1ccn2nc([C@H](C)Nc3ncnc(N)c3C#N)nc(N(CCN(C)C)Cc3ccc(N4CCN(C)CC4)cc3)c12 | 2.9
26 | COc1ccc(S(=O)(=O)Nc2cc(-c3nc([C@H](C)Nc4ncnc(N)c4C#N)nn4ccc(C)c34)cnc2O)cc1 | 10
27 | Cc1ccn2nc([C@H](C)Nc3ncnc(N)c3C#N)nc(N(CCN(C)C)Cc3ccc(N4CCC(N(C)C)CC4)cc3)c12 | 6.4
28 | Cc1ccn2nc(Cn3nc(-c4cc(O)cc(F)c4)c4c(N)ncnc43)nc(N3CCC(C(N)=O)CC3)c12 | 2.8
29 | Cc1ccn2nc(Cn3nc(-c4cncc(O)c4)c4c(N)ncnc43)nc(N3C[C@@H](C)N[C@@H](C)C3)c12 | 0.9
30 | C[C@H](Nc1ncnc(N)c1C#N)c1nc(OCC2CCOCC2)c2c(Br)ccn2n1 | 6
31 | Cc1ccn2nc([C@H](C)Nc3ncnc(N)c3C#N)nc(-c3cc(O)cc(C(=O)NCCN(C)C)c3)c12 | 3.6
32 | Cc1ccn2nc([C@H](C)Nc3ncnc(N)c3C#N)nc(CCN3CCOCC3)c12 | 1.9
33 | Cc1ccn2nc(Cn3nc(-c4cc(O)cc(F)c4)c4c(N)ncnc43)nc(OCCN3CCC(C(=O)O)CC3)c12 | 0.6
34 | Cc1cc(C(=O)NCCCCCN(C)CCO)cc(-c2nc([C@H](C)Nc3ncnc(N)c3C#N)nn3ccc(C)c23)c1 | 3.1
35 | Cc1ccn2nc([C@H](C)Nc3ncnc(N)c3-c3cc(O)cc(F)c3)nc(OCC3CCOCC3)c12 | 62
36 | Cc1cc(C(=O)O)cc(-c2nc([C@H](C)Nc3ncnc(N)c3C#N)nn3ccc(C)c23)c1 | 0.4
37 | Cc1ccn2nc([C@H](C)Nc3ncnc(N)c3C#N)nc(-c3ccnc(N4CCC(N(C)C)CC4)c3)c12 | 5.9
38 | Cc1ccn2nc(Cn3nc(-c4cc(O)cc(F)c4)c4c(N)ncnc43)nc(N3CCSCC3)c12 | 2.7
39 | Cc1ccn2nc(Cn3nc(-c4cc(O)cc(NS(C)(=O)=O)c4)c4c(N)ncnc43)nc(N3C[C@@H](C)N[C@@H](C)C3)c12 | 0.5
40 | C[C@H](Nc1ncnc(N)c1C#N)c1nc(OCC2CCNCC2)c2cccn2n1 | 27

Row | Compound | IC50 [nM]
41 | CNCCNc1nc([C@H](C)Nc2ncnc(N)c2C#N)nn2ccc(C)c12 | 6.1
42 | Cc1ccn2nc([C@H](C)Nc3ncnc(N)c3C#N)nc(-c3ccc(O)c(C(C)(C)O)c3)c12 | 8
43 | Cc1ccn2nc([C@H](C)Nc3ncnc4[nH]cc(-c5cc(O)cc(NS(=O)(=O)CCN(C)C)c5)c34)nc(N3C[C@@H](C)N[C@@H](C)C3)c12 | 6.2
44 | Cc1cc(C(=O)N(C)Cc2cccc(O)c2)cc(-c2nc([C@H](C)Nc3ncnc(N)c3C#N)nn3ccc(C)c23)c1 | 1.7
45 | Cc1cc(C(=O)NCc2ccc(S(N)(=O)=O)cc2)cc(-c2nc([C@H](C)Nc3ncnc(N)c3C#N)nn3cccc23)c1 | 76.7
46 | Cc1ccn2nc(Cn3nc(-c4cc(O)cc(F)c4)c4c(N)ncnc43)nc(OCC3CCOCC3)c12 | 2
47 | Cc1ccn2nc(Cn3nc(-c4cc(O)cc(F)c4)c4c(N)ncnc43)nc(OCCN3CCOCC3)c12 | 0.8
48 | Cc1ccn2nc(Cn3nc(-c4cc(O)cc(F)c4)c4c(N)ncnc43)nc(N3CCS(=O)(=O)CC3)c12 | 2.5
49 | Cc1ccn2nc(Cn3nc(-c4cc(O)cc(F)c4)c4c(N)ncnc43)nc(N3C[C@@H]4CC[C@H]3CN4S(C)(=O)=O)c12 | 5.9
50 | Cc1ccn2nc([C@H](C)Nc3ncnc(N)c3C#N)nc(-c3cc(O)cc(C(=O)NC4CC4)c3)c12 | 2
51 | Cc1ccn2nc([C@H](C)Nc3ncnc(N)c3C#N)nc(N3C[C@@H](C)N[C@@H](C)C3)c12 | 0.5
52 | Cc1ccn2nc(Cn3nc(-c4cc(O)cc(F)c4)c4c(N)ncnc43)nc(NCCN3CCCC3)c12 | 1.1
53 | Cc1ccn2nc([C@H](C)Nc3ncnc(N)c3C#N)nc(-c3cc(O)cc(C(F)(F)F)c3)c12 | 1
54 | Cc1ccn2nc([C@H](C)Nc3ncnc(N)c3C#N)nc(Oc3cccc(CO)c3)c12 | 7
55 | Cc1ccn2nc([C@H](C)Nc3ncnc4[nH]cc(C#N)c34)nc(N(CCN(C)C)c3cccc(O)c3)c12 | 1
56 | Cc1ccn2nc(Cn3nc(-c4cc(O)cc(F)c4)c4c(N)ncnc43)nc(OC3CCN(C(C)C)CC3)c12 | 1
57 | Cc1cc(C(=O)NCc2ccc(C(=O)NCCO)cc2)cc(-c2nc([C@H](C)Nc3ncnc(N)c3C#N)nn3ccc(C)c23)c1 | 2.6
58 | Cc1ccn2nc([C@H](C)Nc3ncnc4[nH]cc(-c5cnn(C)c5)c34)nc(N3C[C@@H](C)N[C@@H](C)C3)c12 | 2
